Laboratory results: US20250026753A1, “FUSED TRIAZINONE DERIVATIVES AND METHODS OF USING THE SAME” (Rgenta Therapeutics, Inc., priority 2021, published 2025)
Where a name gives a salt, the structure may show the parent alone.

How the values were obtained:
K562 = test: Cell proliferation assay (CellTiterGlo, 72 hour incubation), K562; type: cell-based; details: Homo sapiens, K562 cells, inhibition of cell proliferation, CellTiterGlo luminescence
Description: (§1) Various cancer cell lines including K562 and COLO201, were treated with the compounds of the present disclosure to assess their effect on inhibiting cell proliferation.
(§2) For compound preparation, test compounds were diluted in duplicates from 10 mM stocks in 11-points 1:3 serial dilutions in DMSO. Then 125 nL test compounds at the serial dilutions were dispensed into 384-well assay plate using Echo dispenser. Staurosporine at 1 mM stock (5 μM final concentration) and DMSO (0.500 final concentration) were used as the positive and negative controls respectively.
(§3) To prepare cell lines, each frozen cell line stock was resuspended and grown in proper growth medium to a density of 40,000 cells/mL. Then 25 μL of cell suspension were dispensed into the assay plate to give seed cell density at 1,000 cells/well, compounds at 50 μM top concentration with 11-point serial dilutions, and 0.5% o DMSO final concentration. Assay plates were then centrifuged at 300 rpm for 1 minute and then incubated at 37° C., 9500 humidity, 500 CO2 for 72 hours. After the 72 hour incubation, the assay plate and its contents were equilibrated at room temperature for approximately 30 minutes. 25 μL of CellTiterGlo reagent was added to the assay plate and mixed for two minutes on an orbital shaker. Then after 10 minutes of incubation of assay plate at from temperature, the luminescence (RLU) signals in each well were recorded using Envision plate reader, then converted to percentage inhibition values using the signals in staurosporine and DMSO treated wells as the references. IC50 values were determined by curve fitting in Levenberg-Marquardt algorithm.

COLO201 = test: Cell proliferation assay (CellTiterGlo, 72 hour incubation), COLO201; type: cell-based; details: Homo sapiens, COLO 201, COLO201 cells, inhibition of cell proliferation, CellTiterGlo luminescence
Description: as §1, §2, §3

IC50 (K562)	IC50 (COLO201)	Structure (SMILES)
1 to 10 µM	1 to 10 µM	COc1cc2nc(-c3cc(F)c4nc(C)cn4c3)nc(=O)n2cc1N1CCNCC1 [Compound 119, 2-(8-fluoro-2-methylimidazo[1,2-a]pyridin-6-yl)-8-methoxy-7-(piperazin-1-yl)-4H-pyrido[1,2-a][1,3,5]triazin-4-one]
≥ 10 µM	≥ 10 µM	COc1c(N2CCNCC2)ccc2nc(-c3cc(F)c4nc(C)cn4c3)nc(=O)n12 [Compound 120, 2-(8-fluoro-2-methylimidazo[1,2-a]pyridin-6-yl)-6-methoxy-7-(piperazin-1-yl)-4H-pyrido[1,2-a][1,3,5]triazin-4-one formic acid]
< 1 µM	< 1 µM	Cc1cn2cc(-c3nc(=O)n4cc(N5CCN[C@@H](C)C5)cc(F)c4n3)cc(C)c2n1 [Compound 121, (S)-2-(2,8-dimethylimidazo[1,2-a]pyridin-6-yl)-9-fluoro-7-(3-methylpiperazin-1-yl)-4H-pyrido[1,2-a][1,3,5]triazin-4-one hydrochloride]
1 to 10 µM	≥ 10 µM	Cc1cn2cc(-c3nc(=O)n4c(C)c(N5CCNCC5)ccc4n3)cc(F)c2n1 [Compound 122, 2-(8-fluoro-2-methylimidazo[1,2-a]pyridin-6-yl)-6-methyl-7-(piperazin-1-yl)-4H-pyrido[1,2-a][1,3,5]triazin-4-one hydrochloride]
1 to 10 µM	≥ 10 µM	Cc1cn2cc(-c3nc(=O)n4cc(N5CC6(CNC6)C5)ccc4n3)cc(F)c2n1 [Compound 127, 7-2,6-diazaspiro[3.3]heptan-2-yl-2-8-fluoro-2-methylimidazo[1,2-a]pyridin-6-yl-4H-pyrido[1,2-a][1,3,5]triazin-4-one trifluoroacetic acid]
< 1 µM	< 1 µM	Cc1cc2cc(-c3nc(=O)n4cc(N5CCN[C@@H](C)C5)cc(F)c4n3)cc(C)n2n1 [Compound 131, 2-{2,7-dimethylpyrazolo[1,5-a]pyridin-5-yl}-9-fluoro-7-[(3S)-3-methylpiperazin-1-yl]-4H-pyrido[1,2-a][1,3,5]triazin-4-one]
< 1 µM	1 to 10 µM	C[C@H]1CN(c2ccc3nc(-c4cc(F)c5nn(C)cc5c4)nc(=O)n3c2)CCN1 [Compound 133, (S)-2-(7-fluoro-2-methyl-2H-indazol-5-yl)-7-(3-methylpiperazin-1-yl)-4H-pyrido[1,2-a][1,3,5]triazin-4-one hydrochloride]

Structure (SMILES)	IC50 (K562)	IC50 (COLO201)
Cc1cn2cc(-c3nc(=O)n4cc(N5CC6CCCC(C5)N6)ccc4n3)cc(F)c2n1 [Compound 118, 7-(3,9-diazabicyclo[3.3.1]nonan-3-yl)-2-(8-fluoro-2-methylimidazo[1,2-a]pyridin-6-yl)-4H-pyrido[1,2-a][1,3,5]triazin-4-one hydrochloride]	< 1 µM	1 to 10 µM
